Test results from patent publication US20250127937A1, “FAP INHIBITOR” (UNIVERSITÄT HEIDELBERG, priority 2018, published 2025).

Key:
[1] = tested on: HT-1080-FAP cells; assay: Efflux experiments in HT-1080-FAP cells; assay type: cell-based, human; details: after 24 h in compound-free medium
Experimental: Radioligand binding studies were performed using HT-1080-FAP cells. The radiolabeled compound was added to the cell culture and incubated for different time intervals ranging from 10 min to 24 h. Competition experiments were performed by simultaneous exposure to unlabeled (10^−5 M to 10^−9M) and radiolabeled compound for 60 min. For efflux experiments, radioactive medium was removed after incubation for 60 min and replaced by non-radioactive medium for time intervals ranging from 1 to 24 h. For internalization experiments, surface bound activity was removed by incubating the cells with 1 M glycine-HCl buffer for 10 min. The radioactivity was measured using a γ-counter, normalized to 1 mio cells and calculated as percentage of applied dose (% ID).
For radioligand binding studies, cells were seeded in 6-well plates and cultivated for 48 h to a final confluence of approx. 80-90% (1.2-2 mio cells/well). The medium was replaced by 1 mL fresh medium without fetal calf serum. The radiolabeled compound was added to the cell culture and incubated for different time intervals ranging from 10 min to 24 h. Competition experiments were performed by simultaneous exposure to unlabeled (10^−5 M to 10^−9 M) and radiolabeled compound for 60 min. For efflux experiments, radioactive medium was removed after incubation for 60 min and replaced by non-radioactive medium for time intervals ranging from 1 to 24 h. In all experiments, the cells were washed with 1 mL phosphate-buffered saline pH 7.4 for 2 times and subsequently lysed with 1.4 ml lysis buffer (0.3 M NaOH, 0.2% SDS). Radioactivity was determined in a γ-counter (Cobra II, Packard), normalized to 1 mio cells and calculated as percentage of the applied dose (% ID). Each experiment was performed 3 times, and 3 repetitions per independent experiment were acquired.

[2] = tested on: HT-1080-FAP tumor xenografts; assay: Organ distribution ex vivo in HT-1080-FAP tumor bearing nude mice; parameters: species or system mouse
Experimental: For in vivo experiments, 8 week old BALB/c nu/nu mice (Charles River) were subcutaneously inoculated into the right trunk with 5×10^6 with HT-1080-FAP, Capan-2 or SK-LMS-1 cells, respectively. When the size of the tumor reached approximately 1 cm^3, the radiolabeled compound was injected via the tail vein (˜10 MBq for small-animal PET imaging; ˜1 MBq for organ distribution). PET imaging was performed up to 140 min after intravenous injection of 1 MBq of Ga-68 labeled compound per mouse using the Inveon PET small-animal PET scanner (Siemens). Images were reconstructed iteratively using the 3D-OSEM+MAP method and were converted to standardized uptake value (SUV) images. Quantification was done using a ROI technique and expressed as SUV mean. For organ distribution of Lu-177 labeled compound (approx. […] per mouse), the animals (n=3 for each time point) were sacrificed after indicated time points (from 30 min to 24 h). The distributed radioactivity was measured in all dissected organs and in blood using a γ-counter (Cobra Autogamma, Packard). The values are expressed as percentage of injected dose per gram of tissue (% ID/g).

[3] = tested on: tumor lesions and normal tissue of cancer patients; assay: Clinical PET/CT imaging in cancer patients (SUV); assay type: in vivo, human
Experimental: Diagnostic imaging of more than 100 patients was performed under the conditions of the updated declaration of Helsinki, § 37 (Unproven interventions in clinical practice) and in accordance to the German Pharmaceuticals Law § 13 (2b) for medical reasons using either ^68Ga-FAPI-02 or -04, which was applied intravenously (20 nmol, 122-336 MBq), 10 min, 1 and 3 hours post tracer administration. Variation of injected radiotracer activity is due to the short half-life of ^68Ga and the variable elution efficiencies obtained during the lifetime of the ^68Ge/^68Ga generator. […] The PET/CT scans were performed with a Biograph mCT Flow™ PET/CT-Scanner (Siemens Medical Solution) using the following parameters: slice thickness of 5 mm, increment of 3-4 mm, soft-tissue reconstruction kernel, care dose. Immediately after CT scanning, a whole-body PET was acquired in 3D (matrix 200×200) in FlowMotion™ with 0.7 cm/min. The emission data were corrected for random, scatter and decay. Reconstruction was conducted with an ordered subset expectation maximisation (OSEM) algorithm with 2 iterations/21 subsets and Gauss-filtered to a transaxial resolution of 5 mm at full-width half-maximum (FWHM). Attenuation correction was performed using the low-dose non-enhanced CT data. The quantitative assessment of standardized uptake values (SUV) was done using a region of interest technique.
For the normal tissue of 16 organs, a 2 cm Spheric-VOI was placed in the parenchyma, for tumor lesions a threshold segmented VOI was used to quantify SUVmean/max^3.

[4] = Preliminary dosimetry estimate in patients; assay type: in vivo, human
[5] = target: recombinant human FAP protein (Homo sapiens (Human), UniProt Q12884); assay: Enzyme inhibition assay with fluorogenic substrate Z-GP-AMC; assay type: biochemical; details: 0-1000 nM/well, 30 min at 37° C.
Chain of recombinant human FAP protein (Q12884 whole entry): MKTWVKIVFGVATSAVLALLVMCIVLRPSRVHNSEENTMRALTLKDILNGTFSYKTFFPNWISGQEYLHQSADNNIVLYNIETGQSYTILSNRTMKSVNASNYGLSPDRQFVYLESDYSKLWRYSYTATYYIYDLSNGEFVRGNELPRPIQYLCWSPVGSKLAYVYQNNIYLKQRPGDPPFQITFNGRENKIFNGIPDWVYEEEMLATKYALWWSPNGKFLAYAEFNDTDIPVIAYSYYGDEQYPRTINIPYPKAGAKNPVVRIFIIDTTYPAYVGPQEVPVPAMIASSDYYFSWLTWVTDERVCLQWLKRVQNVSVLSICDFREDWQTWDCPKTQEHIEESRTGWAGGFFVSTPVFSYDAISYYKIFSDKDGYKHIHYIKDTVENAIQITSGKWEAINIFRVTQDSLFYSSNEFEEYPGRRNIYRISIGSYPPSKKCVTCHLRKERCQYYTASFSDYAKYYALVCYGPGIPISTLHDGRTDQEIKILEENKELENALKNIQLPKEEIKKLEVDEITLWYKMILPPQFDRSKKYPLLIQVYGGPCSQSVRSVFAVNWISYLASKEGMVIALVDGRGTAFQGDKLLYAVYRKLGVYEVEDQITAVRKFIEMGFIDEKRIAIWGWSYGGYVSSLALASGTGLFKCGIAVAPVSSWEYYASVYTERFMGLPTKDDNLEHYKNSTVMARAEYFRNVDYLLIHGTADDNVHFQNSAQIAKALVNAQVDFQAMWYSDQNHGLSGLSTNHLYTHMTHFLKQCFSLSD

[6] = Blood pool clearance from SUVmean of the heart; assay type: in vivo
Source text: The calculated plateau values, which were higher for Ga-68 labeled FAPI-13, -21, -36 and AlF-18 labeled FAPI-74 theoretically correspond to a higher fraction of compound which is not cleared due to unspecific binding or by remaining in circulating (Table 12).

[7] = Lu-177 labeled, 1 h after i.v., HT-1080-FAP, mean ± SD, n = 3

Q: Which “retention of the originally accumulated radioactivity (efflux)” value [1] does the source give for `N#C[C@@H]1CC(F)(F)CN1C(=O)CNC(=O)c1ccnc2ccc(OCCCN3CCN(C(=O)CN4CCN(CC(=O)O)CCN(CC(=O)O)CCN(CC(=O)O)CC4)CC3)cc12` [FAPI-04] here?
A: 49%

Q: And the “highest enrichment within the FAP-expressing tumor” value ([2]; 177Lu labeled, after 2 h)?
A: 5.4 % ID/g

Q: And the “Tumor uptake 1 h” value ([2]; HT-1080-FAP tumor bearing nude mice, 1 h, mean ± SD, n = 3)?
A: 4.9 ± 0.82 % ID/g

Q: And the “Tumor uptake 4 h” value ([2]; HT-1080-FAP tumor bearing nude mice, 4 h, mean ± SD, n = 3)?
A: 5.4 ± 1.51 % ID/g

Q: And the “Tumor uptake 24 h” value ([2]; HT-1080-FAP tumor bearing nude mice, 24 h, mean ± SD, n = 3)?
A: 3.0 ± 0.23 % ID/g

Q: And the Blood uptake [2, 7]?
A: 1.70 ± 0.206 % ID/g

Q: And the Brain uptake [2, 7]?
A: 0.08 ± 0.010 % ID/g

Q: And the Heart uptake [2, 7]?
A: 0.80 ± 0.089 % ID/g

Q: What about the Intestines uptake [2, 7] of the same compound?
A: 0.66 ± 0.196 % ID/g

Q: What about the Kidneys uptake [2, 7] of the same compound?
A: 2.28 ± 0.477 % ID/g

Q: And the Liver uptake [2, 7]?
A: 0.73 ± 0.118 % ID/g

Q: What about the Lungs uptake [2, 7] of the same compound?
A: 1.50 ± 0.151 % ID/g

Q: And the Muscle uptake [2, 7]?
A: 0.92 ± 0.020 % ID/g

Q: And the Spleen uptake [2, 7]?
A: 0.48 ± 0.072 % ID/g

Q: What about the Tumor uptake [2, 7] of the same compound?
A: 4.89 ± 0.817 % ID/g

Q: And the “maximum SUV values in primary tumor, lymph node and bone metastases” value ([3]; 68Ga labeled, 1 h after i.v. administration, patients)?
A: ≤ 48.0

Q: And the “background activity (SUV)” value ([3]; 68Ga labeled, 1 h p.i.)?
A: 2

Q: What about the “average SUVmax, lowest uptake group” value ([3]; 68Ga labeled, 1 h p.i., renal cell, differentiated thyroid, adenoid-cystic, gastric carcinoma, pheochromocytoma) of the same compound?
A: < 6

Q: What about the “average SUVmax, highest uptake group” value ([3]; 68Ga labeled, 1 h p.i., sarcoma, esophageal, breast, cholangiocellular carcinoma, lung cancer) of the same compound?
A: > 12

Q: What about the “decrease of tumor uptake (washout)” value ([3]; from 1 h to 3 h p.i., patients) of the same compound?
A: 50%

Q: What about the “equivalent dose of an exam” value ([4]; 200 MBq Ga-68) of the same compound?
A: 3-4 mSv

Q: And the effective dose ([4]; calculated with IDAC1/ICRP60)?
A: 1.66E-02 mSv/MBq

Q: What about the effective dose ([4]; calculated with IDAC2/ICRP103) of the same compound?
A: 1.35E-02 mSv/MBq

Q: And the effective dose ([4]; calculated with OLINDA)?
A: 1.64E-02 mSv/MBq

Q: What about the “inhibition of enzymatic FAP activity” value [5] of the same compound?
A: robust, dose-dependent FAP inhibition

Q: What about the “Plateau value (SUVmean)” value ([6]; hypothetical plateau, two phase exponential decay of heart SUVmean) of the same compound?
A: 0.21

Q: And the “Blood pool-clearence (T1/2 [min])” value ([6]; rate determining half-life, two phase exponential decay of heart SUVmean 0.375-60 min)?
A: 7.1 min
